Measurements as given in PubChem BioAssay (NCI).
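48-hour exposure; five concentrations; linearly interpolated endpoints. Here, GI50 denotes the concentration required for 50% inhibition of growth. TGI marks complete inhibition of growth.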

What was measured:
Test in all cases: inhibition of tumour cell growth, NCI panel, 48 h
UACC-62 melanoma = system: UACC-62 melanoma
EKVX NSCLC = system: EKVX NSCLC
NCI-H522 lung = system: NCI-H522 lung
SF-268 CNS = system: SF-268 CNS
SK-MEL-5 melanoma = system: SK-MEL-5 melanoma
HL-60(TB) leukemia = system: HL-60(TB) leukemia
SK-MEL-2 melanoma = system: SK-MEL-2 melanoma
NCI-H460 lung = system: NCI-H460 lung
U251 CNS = system: U251 CNS
MALME-3M melanoma = system: MALME-3M melanoma
SNB-19 CNS = system: SNB-19 CNS
SK-MEL-28 melanoma = system: SK-MEL-28 melanoma
MDA-MB-435 = system: MDA-MB-435
HOP-92 NSCLC = system: HOP-92 NSCLC
M14 melanoma = system: M14 melanoma
CCRF-CEM leukemia = system: CCRF-CEM leukemia
PC-3 prostate = system: PC-3 prostate
SN12C renal = system: SN12C renal
IGROV1 ovarian = system: IGROV1 ovarian
K-562 leukemia = system: K-562 leukemia
786-0 renal = system: 786-0 renal
MOLT-4 leukemia = system: MOLT-4 leukemia
ACHN renal = system: ACHN renal
LOX IMVI melanoma = system: LOX IMVI melanoma
SF-295 CNS = system: SF-295 CNS
NCI-H23 lung = system: NCI-H23 lung
HCT-15 colon = system: HCT-15 colon
COLO 205 colon = system: COLO 205 colon
MDA-MB-231 breast = system: MDA-MB-231 breast

In the case of `O=C(CCCCCCNC(=O)C(O)(O)C(F)(F)F)Nc1ncc(-c2ccc(Br)cc2)s1`, the TGI (UACC-62 melanoma) is reported as 2.38 µM, the GI50 (EKVX NSCLC) is reported as 1.33 µM and the TGI (EKVX NSCLC) is reported as over 31.8 µM. The GI50 (NCI-H522 lung) was 1.45 µM, the TGI (NCI-H522 lung) was 13.8 µM and the GI50 (SF-268 CNS) was 1.29 µM. The TGI (SF-268 CNS) was 12.2 µM, the GI50 (SK-MEL-5 melanoma) was 0.972 µM and the TGI (SK-MEL-5 melanoma) was 3.43 µM. For the same molecule, the GI50 (HL-60(TB) leukemia) was 1.62 µM, the TGI (HL-60(TB) leukemia) was over 31.8 µM and the GI50 (SK-MEL-2 melanoma) was 1.36 µM. The TGI (SK-MEL-2 melanoma) was 18.8 µM, the GI50 (NCI-H460 lung) was 0.89 µM and the TGI (NCI-H460 lung) was 8.2 µM. It also gave a GI50 (U251 CNS) of 0.83 µM, a TGI (U251 CNS) of over 31.8 µM and a GI50 (MALME-3M melanoma) of 0.913 µM. The TGI (MALME-3M melanoma) was over 31.8 µM, the GI50 (SNB-19 CNS) was 1.32 µM and the TGI (SNB-19 CNS) was 6.61 µM. It also gave a GI50 (SK-MEL-28 melanoma) of 1.12 µM, a TGI (SK-MEL-28 melanoma) of over 31.8 µM and a GI50 (MDA-MB-435) of 1.04 µM. The TGI (MDA-MB-435) was over 31.8 µM, the GI50 (HOP-92 NSCLC) was 0.199 µM and the TGI (HOP-92 NSCLC) was 1.51 µM. The GI50 (M14 melanoma) was 1.47 µM, the TGI (M14 melanoma) was over 31.8 µM and the GI50 (CCRF-CEM leukemia) was 1.19 µM. The TGI (CCRF-CEM leukemia) was over 31.8 µM, the GI50 (PC-3 prostate) was 0.957 µM and the TGI (PC-3 prostate) was over 31.8 µM. For the same molecule, the GI50 (SN12C renal) was 1.25 µM, the TGI (SN12C renal) was 18.7 µM and the GI50 (IGROV1 ovarian) was 0.846 µM. The TGI (IGROV1 ovarian) was 4.51 µM, the GI50 (K-562 leukemia) was 0.442 µM and the TGI (K-562 leukemia) was over 31.8 µM. For the same molecule, the GI50 (786-0 renal) was 1 µM, the TGI (786-0 renal) was over 31.8 µM and the GI50 (MOLT-4 leukemia) was 0.831 µM. It also gave a TGI (MOLT-4 leukemia) of over 31.8 µM, a GI50 (ACHN renal) of 0.908 µM and a TGI (ACHN renal) of 4.83 µM. For the same molecule, the GI50 (LOX IMVI melanoma) was 0.564 µM, the TGI (LOX IMVI melanoma) was 1.36 µM and the GI50 (SF-295 CNS) was 0.628 µM. It also gave a TGI (SF-295 CNS) of 1.51 µM, a GI50 (NCI-H23 lung) of 1.21 µM and a TGI (NCI-H23 lung) of 6.56 µM. It also gave a GI50 (HCT-15 colon) of 1.43 µM, a TGI (HCT-15 colon) of 6.28 µM and a GI50 (COLO 205 colon) of 0.826 µM. For the same molecule, the TGI (COLO 205 colon) was 2.26 µM, the GI50 (MDA-MB-231 breast) was 0.607 µM and the TGI (MDA-MB-231 breast) was 2 µM.
